In PubChem BioAssay AID489033 (Sanford-Burnham Center for Chemical Genomics, 2010):
The source made the active and inactive calls. No rule for the calls is given here.

Each compound was assayed on 697B B-cell line, NF-kB luciferase reporter luminescence (assay: NF-kB reporter inhibition in B cells, dose response, selectivity assay for T-cell antigen receptor NF-kB inhibitors, 697B cells, luminescence (AID 489033)).

SMILES | IC50
C(=N\Nc1nc2ccccc2s1)/c1ccccn1 | 0.39 µM
O=C1c2c(O)ccc(O)c2C(=O)c2c(NCCNCCO)ccc(NCCNCCO)c21 | 4.2 µM
C=C(C)[C@@]12OC3(c4ccccc4)O[C@@H]1C1[C@@H]4O[C@]4(CO)[C@@H](O)[C@]4(O)C(=O)C(C)=C[C@H]4[C@@]1(O3)[C@H](C)[C@H]2OC(=O)/C=C/C=C/c1ccccc1 (stereo partly drawn) | 38.9 µM (inactive)
COc1cc2c(c(OC)c1OC)-c1ccc(O)cc1[C@@H](NC(C)=O)CC2 | > 80 µM (inactive)
Cc1c(C(=O)OCC(C)C)[nH]c2c1C(=O)CC(c1cccs1)C2 (stereo not drawn) | > 80 µM (inactive)
C[C@]12CCC3C(CCC4=CC(O)CC[C@@]43/C=N/O)C1(O)CCC2C1=CC(=O)OC1 (stereo partly drawn) | 2.58 µM
CCOc1ccccc1NC(=O)CN(c1ccc(OC)cc1)S(=O)(=O)c1c(C)noc1C | > 80 µM (inactive)
Cc1ccc(-c2cc3c(N=O)c4ccccc4c-3n[nH]2)cc1 | 4.58 µM
Cc1ccsc1/C=N/NC(=O)c1cc(-c2ccncc2)nc2ccccc12 | 2.38 µM
CN(C)c1ccc2c(c1)OC(N)=C(C#N)C2c1cccc(F)c1 (stereo not drawn) | > 80 µM (inactive)
COc1cc(C2c3cc4c(cc3CC3COC(=O)C32)OCO4)cc(OC)c1OC (stereo not drawn) | > 80 µM (inactive)
CCCSc1nnc(Sc2nnnn2-c2ccccc2)s1 | 7 µM
COc1ccc(CS(=O)(=O)/C(Cl)=C(/Cl)C(=O)Nc2ccc(OC)nc2)cc1 | 3.32 µM
COc1cc(-c2noc(C)c2C#Cc2ccsc2)cc(OC)c1OC | 77.7 µM (inactive)
CCN(CC)c1ccc(-c2nn3c(-c4ccccc4OC)nnc3s2)cc1 | > 80 µM (inactive)
CN[C@H]1CCc2cc(OC)c(OC)c(OC)c2-c2ccc(OC)c(=O)cc21 | > 80 µM (inactive)
Cc1c(C(=O)N2CCOCC2)[nH]c2c1C(=O)CC(c1ccccc1Cl)C2 (stereo not drawn) | > 80 µM (inactive)
CCC(O)C1CCN(C(=O)c2cc(COc3ccc4ncccc4c3)on2)CC1 (stereo not drawn) | 3.88 µM
CC(=O)N1c2ccc(S(=O)(=O)N3CCC(C(=O)Nc4cccc(C)n4)CC3)cc2CC1C (stereo not drawn) | 0.79 µM
O=S1(=O)C=C(Sc2nc3ccccc3s2)c2ccccc21 | 0.32 µM
COc1cccc(-c2cc(C(=O)Nc3cc(C)n(Cc4ccc(Cl)cc4)n3)no2)c1 | > 80 µM (inactive)
O=C(O)c1ccc(N/N=C/c2ccc3c(c2)OCO3)cc1 | 1.04 µM
COc1ccc(NC(=O)/C(Cl)=C(/Cl)S(=O)Cc2ccc(Cl)cc2)cn1 (stereo not drawn) | 0.18 µM
CCCCCc1ccc(OCCCC[n+]2ccc(C)cc2)c(CCCCC)c1 | 4.21 µM

SMILES | IC50
COc1cc(NCCCCCCCN)c2ncccc2c1 | 41.4 µM (inactive)
Cc1nc2ccccc2c2c1CC(C(C)(Cl)Br)O2 (stereo not drawn) | 22.8 µM (inactive)
COC(=O)c1ccccc1NC(=O)Cn1c(-c2nonc2N)nc2ccccc21 | > 80 µM (inactive)
N#C/C(=C\c1ccc(OCc2ccc(C(=O)O)cc2)cc1)C(=O)N1CCOCC1 | 5.92 µM
Cc1cc(-c2ccc(C(C)C)c(S(=O)(=O)N3CCN(c4ccccc4)CC3)c2)on1 | > 80 µM (inactive)
COc1cccc(C2CC(=O)Nc3cc4c(cc32)CCC4)c1 (stereo not drawn) | > 80 µM (inactive)
CC(=O)Nc1ccc(S(=O)(=O)N2CCCc3ccccc32)cc1 | > 80 µM (inactive)
O=C(/C=C/c1cccc([N+](=O)[O-])c1)n1cnc2ccccc21 | 3.2 µM
c1cc2c(cc1C1=NNC(=NC3CC3)SC1)OCCO2 | 0.3 µM
CC(C)(C)c1nnc(N/N=C/c2ccccc2O)n(N)c1=O | 52.8 µM (inactive)
O=C(N/N=C(\c1ccccc1)c1cccnc1)c1cccc(F)c1 | 3.1 µM
CCOc1ccc(N(C)S(=O)(=O)c2ccc(-c3cc(C)no3)s2)cc1 | > 80 µM (inactive)
CC(=O)O[C@H]1C(=O)[C@@]2(C)[C@H]([C@H](OC(=O)c3ccccc3)[C@]3(O)C[C@H](OC(=O)[C@H](O)[C@@H](NC(=O)c4ccccc4)c4ccccc4)C(C)=C1C3(C)C)[C@]1(OC(C)=O)CO[C@@H]1C[C@@H]2O | > 80 µM (inactive)
CCOC(=O)Nc1nc(-c2ccccc2)c(C(=O)c2ccccc2)s1 | > 80 µM (inactive)
CC(C)(C)c1ccc(C(=O)Nc2ccc(Oc3cccnc3)nc2)cc1 | 3.28 µM
N=c1ccn(CC(=O)c2ccc(-c3ccccc3)cc2)cc1 | 19.2 µM
CCOC(=O)c1[nH]c(C=O)c(C(=O)OCC)c1C | 59.5 µM (inactive)
O=[N+]([O-])c1ccc(-c2nc(C(Cl)Cl)c3ccccc3n2)cc1 | 1.6 µM
Clc1ccc(CSc2nncn2-c2ccc3c(c2)OCCO3)cc1 | 70 µM (inactive)
CCCC(=O)Nc1nc2ccc(NC(=O)c3c(F)c(F)c(OC)c(F)c3F)cc2s1 | > 80 µM (inactive)
O=C(Nc1nc(-c2ccccc2)cs1)c1ccc(N2CCOCC2)c([N+](=O)[O-])c1 | 6.64 µM
O=C(c1ccc(CS(=O)c2ccccc2Cl)o1)N1CCN(c2ccccn2)CC1 (stereo not drawn) | > 80 µM (inactive)
COC(=O)c1ccc2nc(Nc3nc4c(F)cc(F)cc4s3)sc2c1 | 24.6 µM (inactive)
C/C=C(\C)C(=O)N[C@@H](c1ccccc1)[C@@H](O)C(=O)O[C@H]1C[C@@]2(O)[C@@H](OC(=O)c3ccccc3)C3[C@](C)(C(=O)[C@H](OC(C)=O)C(=C1C)C2(C)C)[C@@H](O)C[C@H]1OC[C@@]31OC(C)=O (stereo partly drawn) | > 80 µM (inactive)

SMILES | IC50
CC(=O)c1sc2c(c1OC(=O)c1ccc(Cl)cc1Cl)c(=O)n(-c1ccccc1)c(=S)n2-c1ccccc1 | 1.93 µM
COC(=O)c1ccc(Oc2cc(C)nc(SC)n2)cc1 | > 80 µM (inactive)
CCCC[C@@H](C)C[C@@H](C)C(=O)N(C)[C@@H](CC(C)C)C(=O)N[C@H](C(=O)N(C)[C@H](C(=O)N1C[C@@H](O)C[C@H]1C(=O)N1C(=O)C=C[C@@H]1C)C(C)C)C(C)OC(C)=O (stereo partly drawn) | < 0.16 µM
C=CC[C@@H](CC/C=C/C=C/CC/C=C\[C@@H]1CSC([C@@H]2C[C@@H]2C)=N1)OC | 15.3 µM
COc1cccc(-c2cc(=O)c3cc(NC(=O)c4ccc(N(C)C)cc4)ccc3[nH]2)c1 | > 80 µM (inactive)
CC(=O)O[C@@]12CO[C@@H]1C[C@H](O)[C@@]1(C)C(=O)[C@H](O)C3=C(C)[C@@H](OC(=O)[C@H](O)[C@@H](NC(=O)c4ccccc4)c4ccccc4)C[C@@](O)([C@@H](OC(=O)c4ccccc4)C12)C3(C)C (stereo partly drawn) | > 80 µM (inactive)
CCCCCCCCCn1c2c(c(=N)c3c1CCC3)CCCC2 | 0.33 µM
CCc1ccc(/C=N/NC(=O)c2cc(-c3ccncc3)nc3ccccc23)s1 | 4.09 µM
O=C1CC(c2cc(F)ccc2F)c2cc3c(cc2N1)CCC3 (stereo not drawn) | > 80 µM (inactive)
CCCCOc1ccccc1C1CC(=O)NC2=C1C(=O)CCC2 (stereo not drawn) | > 80 µM (inactive)
CCCCS(=O)(=O)/C=C\C=C/S(=O)(=O)CCCC | 3.51 µM
c1ccc(-c2noc(-c3ccc4ccccc4c3)n2)nc1 | 0.73 µM
COc1ccc(NC(=O)/C(Cl)=C(/Cl)S(=O)Cc2ccccc2Cl)cn1 (stereo not drawn) | 1.27 µM
CC1=CC(C)(C)N(S(=O)(=O)c2ccc(C)cc2)c2cc(C)ccc21 | > 80 µM (inactive)
COc1ccccc1NC(=O)C1=C(C)Nc2nc3ccccc3n2C1c1cccs1 (stereo not drawn) | > 80 µM (inactive)
CSC1=NC(C(Cl)(Cl)Cl)N=C(c2ccc(C)cc2)N1 (stereo not drawn) | > 80 µM (inactive)
Cc1oc2c(c1C(=O)NCc1cccnc1)C(=O)c1ccccc1C2=O | 4.69 µM
C/C(=N\NC(=O)c1cc(C)nc2ccccc12)c1ccccn1 | 1.23 µM
CCOCCOC(=O)c1[nH]c2c(c1C)C(=O)CC(c1ccccc1)C2 (stereo not drawn) | > 80 µM (inactive)
CN=c1scc(-c2cccs2)n1/N=C/c1ccccc1O | 1.33 µM
COc1cccc(/C=N/Nc2ncnc3scc(-c4ccccc4)c23)c1O | 39.8 µM (inactive)
COc1cc2c(c(OC)c1OC)-c1ccc(OC)c(=O)cc1[C@@H](NC(C)=O)CC2 | > 80 µM (inactive)
C[C@@H]1C=CC(=O)O[C@@H]1c1ccc(Cl)cc1 | 5.11 µM
Cc1ccc(S(=O)(=O)Nc2cccc(-c3ccc4nncn4n3)c2)cc1 | > 80 µM (inactive)

SMILES | IC50
CCn1c2ccccc2c2cc(NC(=O)c3cc(OC)c(OC)c(OC)c3)ccc21 | 18.5 µM
CC(Oc1ccc(Cl)cc1Cl)C(=O)Nc1ccncc1 (stereo not drawn) | > 80 µM (inactive)
CCn1ncc(C2=NOC(C(=O)NCc3ccccc3)C2)c1C (stereo not drawn) | > 80 µM (inactive)
CC[C@@]1(O)C(=O)OCc2c1cc1n(c2=O)Cc2cc3c(N)cccc3nc2-1 | 0.62 µM
CC(=O)c1ccc(N2CCN(S(=O)(=O)c3ccc4c(c3)CC(C)N4C(=O)C3CC3)CC2)cc1 (stereo not drawn) | 0.72 µM
Cc1ccc(C(=O)Nc2cnc3ccccc3c2)cc1 | 7.31 µM
Cc1noc(C)c1COc1cccc(C(=O)OCC(=O)N2CC(=O)Nc3ccccc32)c1 | > 80 µM (inactive)
O=C(c1ccccc1)c1nn(-c2ccc(Cl)cc2)c(=O)cc1C(F)(F)F | 6.53 µM
C[C@@H]1O[C@@H](O[C@H]2C[C@@H](O)[C@]3(CO)[C@H]4[C@H](O)C[C@]5(C)[C@@H](C6COC(=O)C6)CC[C@]5(O)[C@@H]4CC[C@]3(O)C2)[C@H](O)[C@H](O)[C@H]1O (stereo partly drawn) | 3.72 µM
CCOc1ccccc1C1CC(=O)Nc2cc(C)c(C)cc21 (stereo not drawn) | > 80 µM (inactive)
Cn1nc(C(C)(C)C)cc1C(=O)NCc1cc(F)cc2c1OCOC2 | > 80 µM (inactive)
Cc1ccc(/C=N/NC(=O)c2c(C)nc3ccc(Br)cn23)cc1 | > 80 µM (inactive)
COC(=O)c1[nH]c2ccc(Br)cc2c1NC(=O)CN1CCN(C2CCCCC2)CC1 | 8.88 µM
CC/C=C/CC(=O)N[C@@H](c1ccccc1)[C@@H](O)C(=O)O[C@H]1C[C@@]2(O)[C@@H](OC(=O)c3ccccc3)C3[C@](C)(C(=O)[C@H](OC(C)=O)C(=C1C)C2(C)C)[C@@H](O)C[C@H]1OC[C@@]31OC(C)=O (stereo partly drawn) | > 80 µM (inactive)
CCOC(=O)c1[nH]c(C)c(C(=O)Nc2cc(OC)ccc2OC)c1C | > 80 µM (inactive)
CCCCC(=O)NC(c1ccc(Cl)cc1Cl)c1ccc2cccnc2c1O (stereo not drawn) | > 80 µM (inactive)
O=C(Nc1ccccc1Cl)/C(Cl)=C(\Cl)S(=O)c1ccccc1 (stereo not drawn) | 0.53 µM
CCc1c(C)nc2ncnn2c1NCCc1ccc(OC)cc1 | > 80 µM (inactive)
O=C(Nc1nc2ccc(S(=O)(=O)N3CCCC3)cc2s1)C1CCCCC1 | > 80 µM (inactive)
O=C1C=CCC(/C=C/c2ccccc2)O1 (stereo not drawn) | 2.18 µM
COc1ccc(NC(=O)Cn2nnc(-c3ccccc3NS(=O)(=O)c3ccc(OC)cc3)n2)cc1 | > 80 µM (inactive)
